From PMC6269792, “Arylsulfonylamino-Benzanilides as Inhibitors of the Apical Sodium-Dependent Bile Salt Transporter (SLC10A2)” (Molecules, 2013)

Columns and labels:
Human ASBT = molecular target: T1, Human ASBT (Homo sapiens, UniProt Q12908); test: ASBT inhibition assay: [3H]-taurocholic acid uptake in HEK293T cells transiently transfected with human ASBT; format: cell-based; conditions: for inhibition at 10 µM: HEK-293T; for IC50: inhibitor concentration that gives 50% taurocholate uptake compared to no inhibitor control
T1 construct: expressed in transfected cells; host or cells: HEK293T
T1 sequence (Q12908 1-348): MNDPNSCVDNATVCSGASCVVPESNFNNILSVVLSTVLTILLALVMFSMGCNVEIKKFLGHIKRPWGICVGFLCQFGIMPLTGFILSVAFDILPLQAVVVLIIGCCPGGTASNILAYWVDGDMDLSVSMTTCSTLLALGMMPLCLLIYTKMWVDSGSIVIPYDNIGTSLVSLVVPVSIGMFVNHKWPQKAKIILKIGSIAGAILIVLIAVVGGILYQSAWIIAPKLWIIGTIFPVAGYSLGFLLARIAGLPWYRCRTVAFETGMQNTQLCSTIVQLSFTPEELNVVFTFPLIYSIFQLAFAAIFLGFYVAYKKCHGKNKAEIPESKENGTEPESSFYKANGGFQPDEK
Method: In vitro inhibitory activity of all target compounds against ASBT was evaluated using a radioisotope-based assay. All the newly synthesized derivatives were initially tested at 10 μM concentration (Table 1).
HEK293T was obtained from the American Type Culture Collection (Manassas, VA, USA), and grown in MEM supplemented with 100 U/mL penicillin and […] streptomycin and 10% heat-inactivated fetal bovine serum. Human ASBT expression construct was prepared as previously described. HEK293T cells were seeded in 12 well plates and transiently transfected with 0.5 μg/well pcDNA3.1/ASBT or negative control plasmid pcDNA3.1 using lipofactamine 2000 (Invitrogen, Carlsbad, CA, USA) according to the manufacturer’s instructions. Twenty-four hours after transfection, HEK293T cells were assayed for taurocholic acid uptake as previously described with minor modifications. […] To terminate the transport process, the plates were chilled on ice and the cells were immediately washed with ice-cold buffer three times. Cells were lysed with 0.3 mL lysis buffer (0.5% triton x-100) and shaken vigorously for 20 min. The radioactivity of the cell lysate was counted using a MicroBeta^2 Liquid Scintillation and Luminescence Counter (PerkinElmer Life Sciences). Protein concentration of the lysate was used to normalize uptake activity.
The inhibition rate was calculated using the following formula: Inhibition Rate (%) = [(1 − (A − C)/(B − C)] × 100
A, [^3H] uptake value of test compound in [^3H]-TCA buffer added to pcDNA3.1/ASBT transfected cells; B, [^3H] uptake value of DMSO (without inhibitor) in [^3H]-TCA buffer added to pcDNA3.1/ASBT transfected cells; C, [^3H] uptake value of Blank sample (DMSO) in [^3H]-TCA buffer added to empty vector (pcDNA3.1) transfected cells.

inhibition at 10 µM (Human ASBT)	IC50 (Human ASBT)	melting point	SMILES
95.4 ± 3.3%	1320 ± 280 nM	203.4 to 204.1 °C	O=C(Nc1ccc(F)c(Cl)c1)c1ccccc1NS(=O)(=O)c1cccc([N+](=O)[O-])c1 [Compound 5a2, N-(3-Chloro-4-fluorophenyl)-2-(3-nitrophenylsulfonamido)benzamide]
66.9 ± 3.5%		220.6 to 221.3 °C	O=C(Nc1ccc(Cl)cc1Cl)c1ccccc1NS(=O)(=O)c1ccc([N+](=O)[O-])cc1 [Compound 5d1, N-(2,4-Dichlorophenyl)-2-(4-nitrophenylsulfonamido)benzamide]
75.5 ± 4.4%		226.4 to 227.1 °C	O=C(Nc1ccc(F)c(Cl)c1)c1ccccc1NS(=O)(=O)c1ccc([N+](=O)[O-])cc1 [Compound 5d2, N-(3-Chloro-4-fluorophenyl)-2-(4-nitrophenylsulfonamido)benzamide]
73.7 ± 3.8%		198.8 to 199.6 °C	Cc1ccc(NC(=O)c2ccccc2NS(=O)(=O)c2ccc([N+](=O)[O-])cc2)cc1C(F)(F)F [Compound 5d3, N-(4-Methyl-3-(trifluoromethyl)phenyl)-2-(4-nitrophenylsulfonamido)benzamide]
58.8 ± 4.3%		203.9 to 205 °C	O=C(Nc1cccc(OC(F)F)c1)c1ccccc1NS(=O)(=O)c1ccc([N+](=O)[O-])cc1 [Compound 5d4, N-(3-(Difluoromethoxy)phenyl)-2-(4-nitrophenylsulfonamido)benzamide]
66.7 ± 3.9%		198.8 to 199.4 °C	O=C(Nc1cccc(OC(F)(F)F)c1)c1ccccc1NS(=O)(=O)c1ccc([N+](=O)[O-])cc1 [Compound 5d5, 2-(4-Nitrophenylsulfonamido)-N-(3-(trifluoromethoxy)phenyl)benzamide]
73.9 ± 2.2%		243.4 to 243.6 °C	O=C(Nc1ccc(Cl)c(Cl)c1)c1ccccc1NS(=O)(=O)c1ccc([N+](=O)[O-])cc1 [Compound 5d6, N-(3,4-Dichlorophenyl)-2-(4-nitrophenylsulfonamido)benzamide]
42.6 ± 3.4%		146.3 to 147.6 °C	O=C(Nc1ccc(Cl)cc1Cl)c1ccccc1NS(=O)(=O)c1cccc(F)c1 [Compound 5e1, N-(2,4-Dichlorophenyl)-2-(3-fluorophenylsulfonamido)benzamide]
21.2 ± 3%		138.8 to 139.7 °C	COc1cccc(S(=O)(=O)Nc2ccccc2C(=O)Nc2ccc(Cl)cc2Cl)c1 [Compound 5f1, N-(2,4-Dichlorophenyl)-2-(3-methoxyphenylsulfonamido)benzamide]

Second part, the compound before the results:

SMILES	inhibition at 10 µM (Human ASBT)	IC50 (Human ASBT)	melting point
O=C(Nc1cccc(OC(F)F)c1)c1ccccc1NS(=O)(=O)c1cccc([N+](=O)[O-])c1 [Compound 5a3, N-(3-(Difluoromethoxy)phenyl)-2-(3-nitrophenylsulfonamido)benzamide]	89 ± 2.6%	2840 ± 520 nM	127.4 to 128.2 °C
O=C(Nc1cccc(OC(F)(F)F)c1)c1ccccc1NS(=O)(=O)c1cccc([N+](=O)[O-])c1 [Compound 5a4, 2-(3-Nitrophenylsulfonamido)-N-(3-(trifluoromethoxy)phenyl)benzamide]	83.8 ± 3.4%	1230 ± 120 nM	141.4 to 142 °C
O=C(Nc1cc(F)cc(F)c1)c1ccccc1NS(=O)(=O)c1cccc([N+](=O)[O-])c1 [Compound 5a5, N-(3,5-Difluorophenyl)-2-(3-nitrophenylsulfonamido)benzamide]	21.6 ± 4.1%		181.1 to 181.9 °C
COc1ccc(NC(=O)c2ccccc2NS(=O)(=O)c2cccc([N+](=O)[O-])c2)cc1O [Compound 5a6, N-(3-Hydroxy-4-methoxyphenyl)-2-(3-nitrophenylsulfonamido)benzamide]	32.1 ± 3.3%		168.9 to 170.1 °C
O=C(Nc1cc(Cl)cc(Cl)c1)c1ccccc1NS(=O)(=O)c1cccc([N+](=O)[O-])c1 [Compound 5a7, N-(3,5-Dichlorophenyl)-2-(3-nitrophenylsulfonamido)benzamide]	56.3 ± 2.8%		209.9 to 210.4 °C
O=C(Nc1cccc(Cl)c1)c1ccccc1NS(=O)(=O)c1cccc([N+](=O)[O-])c1 [Compound 5a9, N-(3-Chlorophenyl)-2-(3-nitrophenylsulfonamido)benzamide]	46.9 ± 3.6%		167.3 to 168.1 °C
Cc1ccc(NC(=O)c2ccccc2NS(=O)(=O)c2cccc([N+](=O)[O-])c2)cc1C(F)(F)F [Compound 5a10, N-(4-Methyl-3-(trifluoromethyl)phenyl)-2-(3-nitrophenylsulfonamido)benzamide]	90.7 ± 4.2%	1490 ± 90 nM	166.4 to 167.4 °C
O=C(Nc1ccc(F)c(Cl)c1)c1cccc(NS(=O)(=O)c2cccc([N+](=O)[O-])c2)c1 [Compound 5b1, N-(3-Chloro-4-fluorophenyl)-3-(3-nitrophenylsulfonamido)benzamide]	66.3 ± 5%		161.3 to 162.6 °C
O=C(Nc1cccc(OC(F)F)c1)c1cccc(NS(=O)(=O)c2cccc([N+](=O)[O-])c2)c1 [Compound 5b2, N-(3-(Difluoromethoxy)phenyl)-3-(3-nitrophenylsulfonamido)benzamide]	30.6 ± 4.3%		159.8 to 160.6 °C
O=C(Nc1ccc(Cl)c(Cl)c1)c1cccc(NS(=O)(=O)c2cccc([N+](=O)[O-])c2)c1 [Compound 5b3, N-(3,4-dichlorophenyl)-3-(3-nitrophenylsulfonamido)benzamide]	62.4 ± 2.9%		192.5 to 193.7 °C
O=C(Nc1cccc(OC(F)(F)F)c1)c1ccc(NS(=O)(=O)c2cccc([N+](=O)[O-])c2)cc1 [Compound 5c1, 4-(3-Nitrophenylsulfonamido)-N-(3-(trifluoromethoxy)phenyl)benzamide]	29.6 ± 3.5%		177.3 to 178.2 °C
O=C(Nc1ccc(Cl)c(Cl)c1)c1ccc(NS(=O)(=O)c2cccc([N+](=O)[O-])c2)cc1 [Compound 5c2, N-(3,4-Dichlorophenyl)-4-(3-nitrophenylsulfonamido)benzamide]	34.8 ± 3.7%		189.2 to 190.5 °C
O=C(Nc1ccc(F)c(Cl)c1)c1ccccc1NS(=O)(=O)c1cccc(F)c1 [Compound 5e2, N-(3-Chloro-4-fluorophenyl)-2-(3-fluorophenylsulfonamido)benzamide]	63.2 ± 3.8%		178.6 to 179.9 °C
Cc1ccc(NC(=O)c2ccccc2NS(=O)(=O)c2cccc(F)c2)cc1C(F)(F)F [Compound 5e3, 2-(3-Fluorophenylsulfonamido)-N-(4-methyl-3-(trifluoromethyl)phenyl)benzamide]	57.6 ± 2.9%		168.8 to 169.6 °C
O=C(Nc1cccc(OC(F)(F)F)c1)c1ccccc1NS(=O)(=O)c1cccc(F)c1 [Compound 5e4, 2-(3-Fluorophenylsulfonamido)-N-(3-(trifluoromethoxy)phenyl)benzamide]	45.7 ± 3.6%		166.8 to 168.7 °C
O=C(Nc1ccc(Cl)c(Cl)c1)c1ccccc1NS(=O)(=O)c1cccc(F)c1 [Compound 5e5, N-(3,4-Dichlorophenyl)-2-(3-fluorophenylsulfonamido)benzamide]	40.6 ± 2.8%		179.1 to 180.6 °C
COc1cccc(S(=O)(=O)Nc2ccccc2C(=O)Nc2ccc(F)c(Cl)c2)c1 [Compound 5f2, N-(3-Chloro-4-fluorophenyl)-2-(3-methoxyphenylsulfonamido)benzamide]	59.5 ± 3.6%		181.9 to 183.2 °C
COc1cccc(S(=O)(=O)Nc2ccccc2C(=O)Nc2ccc(C)c(C(F)(F)F)c2)c1 [Compound 5f3, 2-(3-Methoxyphenylsulfonamido)-N-(4-methyl-3-(trifluoromethyl)phenyl)benzamide]	43 ± 3.2%		165.7 to 166.6 °C
COc1cccc(S(=O)(=O)Nc2ccccc2C(=O)Nc2cccc(OC(F)(F)F)c2)c1 [Compound 5f4, 2-(3-Methoxyphenylsulfonamido)-N-(3-(trifluoromethoxy)phenyl)benzamide]	25.8 ± 2.1%		149.3 to 150.8 °C
O=C(Nc1ccc(Cl)c(Cl)c1)c1ccccc1NS(=O)(=O)c1cccc(OC(F)(F)F)c1 [Compound 5g5, N-(3,4-Dichlorophenyl)-2-(3-(trifluoromethoxy)phenylsulfonamido)benzamide]	80.8 ± 4.3%	1220 ± 200 nM	
